Data set [1] can be described thus: Particle size of mirdametinib drug substance lots (laser diffraction particle sizing). It counts as physicochemical. To be noted: mirdametinib free base drug substance. From the text:
As used herein, “D50” or “d50”, also known as the median diameter, corresponds to the value under which 50% of the particles has a lower volume diameter. “D90” or “d90” corresponds to the value under which 90% of the particles has a lower volume diameter. The particle size may be measured using wet standard laser diffraction particle sizing techniques known in the art. One example of an instrument to measure the particle size of the dry powders is the Mastersizer 3000, manufactured by Malvern Panalytical Ltd. (Malvern, UK). As particles are often non-spherical, it is difficult and complex to provide dimensional descriptions of these non-spherical particles. As used herein, “volume diameter” refers to diameter of a sphere with equal volume of the non-spherical particle.
(§1) Mirdametinib free base (Lots #1, 2, and 3) having the properties in the table below were prepared.

The nature of data set [2]: Bulk and tap density, Carr's Index of drug substance lots. It counts as physicochemical. To be noted: mirdametinib free base drug substance. Here is the method:
as §1

Structures are written as SMILES.

Experimental findings from patent US20240307326A1, “DOSAGE FORMS OF MIRDAMETINIB” (SpringWorks Therapeutics, Inc., priority 2023, published 2024) are described below.

Take `O=C(NOC[C@H](O)CO)c1ccc(F)c(F)c1Nc1ccc(I)cc1F` [Lot 1, N—((R)-2,3-dihydroxypropoxy)-3,4-difluoro-2-(2-fluoro-4-iodo-phenylamino)benzamide]: in data set [1], the D10 was 4.9 μm, the D50 is 20.9 μm and the D90 worked out at 101.5 μm. Also, in data set [2], the Bulk density is on record as 0.169 g/mL, the “Carr's Index” value came out at 57.1 and the Tap density was found to be 0.394 g/mL.
In data set [1], `O=C(NOC[C@H](O)CO)c1ccc(F)c(F)c1Nc1ccc(I)cc1F` [Lot 2, N—((R)-2,3-dihydroxypropoxy)-3,4-difluoro-2-(2-fluoro-4-iodo-phenylamino)benzamide] displayed a D10 of 7.6 μm, a D50 of 28.4 μm and a D90 of 120.7 μm. Also, in data set [2], the Bulk density worked out at 0.197 g/mL, the “Carr's Index” value worked out at 54.6 and the Tap density is 0.434 g/mL.
Consider `O=C(NOC[C@H](O)CO)c1ccc(F)c(F)c1Nc1ccc(I)cc1F` [Lot 3, N—((R)-2,3-dihydroxypropoxy)-3,4-difluoro-2-(2-fluoro-4-iodo-phenylamino)benzamide], for which, in data set [1], the D10 is reported as 17.8 μm, the D50 was determined as 46.5 μm and the D90 is reported as 217.1 μm.
